Converted amounts (≈) assume the structure as drawn. Counter-ions that a name gives are not always drawn. Like-named read-outs stand apart in the source and are kept apart here.
Experiments:
E. carotovora = test: Antibacterial activity against E. carotovora (agar dilution MIC); conditions: for MIC: Pectobacterium carotovorum, 72 h, read-out: MIC (minimum inhibitory concentration); for antibacterial activity: result in words, in vitro, Erwinia carotovora
P. lachrymans = test: Controlling angular leaf spot of cucumber by seed treatment; conditions: grown 2 weeks
Xanthomonas oryzae = format: in vivo, Xanthomonas oryzae (on rice plant, Kinki #33); conditions: spray, 500 ppm, 4 hours before inoculation, 7 days, bacterial-exudation method
Pseudomonas lachrymans = test: Disease prevention effect on angular leaf spot of cucumber; format: in vivo, Pseudomonas lachrymans (on cucumber, Cucumis sativus L.); conditions: spray, 4 hours before inoculation
Description: Four hours after the application of the sample, a suspension of Pseudomonas lachrymans was inoculated by spraying on the plant. […] Incidence of disease was assessed in the following manner. […] |______________________________________ |______________________________________ |0 Healthy […] |3 26-50% diseased spot areas […] | [drawing 22] Five plants were used for each treatment.

Erwinia carotovora = test: Plant systemic activity (root immersion, Chinese cabbage); conditions: roots immersed, 10 ppm, inoculated after 2 days
Pseudomonas solanacearum = format: in vivo, Pseudomonas solanacearum (on tomato, Sekai Ichi); conditions: soil application, one day after inoculation, assessed after additional 10 days
[1] = inoculated seeds soaked 30 minutes, 500 ppm

SMILES	MIC (E. carotovora) [µg/mL]	Infected Plants (P. lachrymans; [1]) [%]	Severity of Disease (Xanthomonas oryzae) [%]	Severity of Disease (Pseudomonas lachrymans; 500 ppm) [%]	Severity of Disease (Erwinia carotovora) [%]	Ratio of Diseased Seedling (Pseudomonas solanacearum; 500 ppm) [%]	other results
COn1cc(C(=O)O)c(=O)c2cc3c(cc21)OCO3 [(3)]	0.39 (≈ 1.48 µM)	–	–	–	–	–	–
CCOC(=O)c1cn(CCF)c2cc3c(cc2c1=O)OCO3 [(8)]	> 50	0	0	21	0	24	antibacterial activity (E. carotovora): very weak antibacterial activity
[H]/N=C(/N)N[C@H]1[C@H](O)[C@@H](O)[C@H](O[C@@H]2O[C@@H](C)[C@](O)(C=O)[C@H]2O[C@@H]2O[C@@H](CO)[C@H](O)[C@@H](O)[C@@H]2NC)[C@@H](N/C(N)=N\[H])[C@@H]1O [Streptomycin Sulfate, reference compound]	–	–	–	–	31	–	Infected Plants (P. lachrymans; inoculated seeds soaked 30 minutes, 200 ppm): 26.5%; Severity of Disease (Pseudomonas lachrymans; 200 ppm): 28%; Ratio of Diseased Seedling (Pseudomonas solanacearum; 200 ppm): 86%
CCn1cc(C(=O)O)c(=O)c2ccc(C)nc21 [Nalidixic acid, nalidixic acid, reference compound]	6.25 (≈ 26.9 µM)	–	–	–	–	–	–
O=C(O)c1cn(CCCl)c2cc3c(cc2c1=O)OCO3 [Compound (9)]	1.56 (≈ 5.28 µM)	–	0	19	0	14	–
O=C(O)c1cn(CC(F)(F)F)c2cc3c(cc2c1=O)OCO3 [(6)]	3.12 (≈ 9.9 µM)	–	–	–	–	–	–
CCn1cc(C(=O)OC)c(=O)c2cc3c(cc21)OCO3 [(2)]	> 50	0	0	25	0	36	antibacterial activity (E. carotovora): very weak antibacterial activity
C=Cn1cc(C(=O)O)c(=O)c2cc3c(cc21)OCO3 [Compound (4)]	0.78 (≈ 3.01 µM)	0	0	4.6	0	6	–
CCn1c(C)c(C(=O)O)c(=O)c2cc3c(cc21)OCO3 [(11)]	> 50	–	–	–	–	–	antibacterial activity (E. carotovora): very weak antibacterial activity
O=C(O)c1cn(CCF)c2cc3c(cc2c1=O)OCO3 [Compound (7)]	0.78 (≈ 2.79 µM)	0	0	12	0	18	–
OCl [Sodium Hypochlorite, reference compound]	–	–	–	–	–	–	Infected Plants (P. lachrymans; inoculated seeds soaked 30 minutes, 2,000 ppm): 7.5%
CCn1cc(C(=O)O)c(=O)c2cc3c(cc21)OCO3 [Compound (1)]	1.56 (≈ 5.97 µM)	0	0	7.9	0	10	–
C=Cn1cc(C(=O)O)c(=O)c2cc3c(cc21)OCO3 [(13)]	–	0	0	2.4	0	4	MIC (minimum inhibitory concentration) (E. carotovora; agar culture medium, 3 days at 27° C): 0.78 µg/mL (≈ 3.01 µM)
COn1cc(C(=O)O)c(=O)c2c3sc(=O)n(C)c3ccc21 [(10)]	0.049 (≈ 0.16 µM)	–	–	–	25	–	–

From patent US4117136A, “Systemic antimicrobial quinolines for plant disease” (Sumitomo Chemical Company, Ltd., priority 1976, dated 1978)
